# Source: patent US20250368649A1, “TETRAHYDROPYRIDOPYRIMIDINE PAN-KRAS INHIBITORS” (Mirati Therapeutics, Inc., priority 2022, published 2025)
# What was measured:
# A549 cells = experiment: Inhibition of KRas-mediated phosphorylation of ERK (Cisbio HTRF pERK), A549 cells; type: cell-based; details: Homo sapiens; for IC50: A549, 3 h, 3 hr compound incubation, Cisbio pERK HTRF; for inhibition at 0.1 µM: single point at 100 nM, 3 hrs compound incubation
# KRas G12A = KRas G12A (Homo sapiens, UniProt P01116, G12A); type: binding; details: single point, 10 nM compound, read-out: Binding to KRas (% inhibition at 10 nM) G12A
# ASPC1 cells = experiment: Inhibition of KRas-mediated phosphorylation of ERK (Cisbio HTRF pERK), ASPC1 cells; type: cell-based; details: Homo sapiens, AsPC-1 cells; for IC50: ASPC1, 3 h, 3 hr compound incubation, Cisbio pERK HTRF; for inhibition at 0.1 µM: ASPC1, single point at 100 nM, 3 hrs compound incubation
# H460 cells = experiment: Inhibition of KRas-mediated phosphorylation of ERK (Cisbio HTRF pERK), H460 cells; type: cell-based; details: Homo sapiens, NCI-H460, 3 h, 3 hr compound incubation, Cisbio pERK HTRF
# KRas G12D = KRas G12D (Homo sapiens, UniProt P01116, G12D); experiment: biochemical; details: Binding to KRas (IC50 nM) G12D, TR-FRET displacement, KRas G12D
# PSN1 cells = experiment: Inhibition of KRas-mediated phosphorylation of ERK (Cisbio HTRF pERK), PSN1 cells; type: cell-based; details: Homo sapiens, PSN1, 3 h, 3 hour compound incubation, Cisbio pERK HTRF
# Procedure, shortened: (§1)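 Cells were seeded on day 1 at 6,000 per well in RPMI containing 10% FBS before compound treatment and phospho-ERK detection.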
# KRas G12R = KRas G12R (Homo sapiens, UniProt P01116, G12R); experiment: biochemical; details: Binding to KRas (IC50 nM) G12R, TR-FRET displacement, KRas G12R
# H358 cells = experiment: Inhibition of KRas-mediated phosphorylation of ERK (Cisbio HTRF pERK), H358 cells; type: cell-based; details: Homo sapiens; for IC50: NCI-H358, 3 h, 3 hr compound incubation, Cisbio pERK HTRF; for inhibition at 0.1 µM: NCI-H358, single point at 100 nM, 3 hrs compound incubation
# HCT116 cells = experiment: Inhibition of KRas-mediated phosphorylation of ERK (Cisbio HTRF pERK), HCT116 cells; type: cell-based; details: Homo sapiens, HCT-116, 3 h, 3 hr compound incubation, Cisbio pERK HTRF
# KRas G12S = KRas G12S (Homo sapiens, UniProt P01116, G12S); type: binding; details: single point, 10 nM compound, read-out: Binding to KRas (% inhibition at 10 nM) G12S
# MKN1 cells = experiment: Inhibition of KRas-mediated phosphorylation of ERK (Cisbio HTRF pERK), MKN1 cells; type: cell-based; details: Homo sapiens, MKN-1, 3 hour compound incubation, Cisbio pERK HTRF
# Procedure, shortened: as §1
# H727 cells = experiment: Inhibition of KRas-mediated phosphorylation of ERK (Cisbio HTRF pERK), H727 cells; type: cell-based; details: Homo sapiens; for IC50: NCI-H727, 3 h, 3 hr compound incubation, Cisbio pERK HTRF; for inhibition at 0.1 µM: NCI-H727, single point at 100 nM, 3 hrs compound incubation
# KRas G12C = KRas G12C (Homo sapiens, UniProt P01116, G12C); type: binding; details: single point, 10 nM compound, read-out: Binding to KRas (% inhibition at 10 nM) G12C
# KRas WT = KRas WT (Homo sapiens, UniProt P01116); experiment: KRas binding assay (TR-FRET displacement), KRas WT; details: single point, 10 nM compound
# KRas Q61H = KRas Q61H (Homo sapiens, UniProt P01116, Q61H); experiment: KRas binding assay (TR-FRET displacement), KRas Q61H; details: single point, 10 nM compound
# KRas G13D = KRas G13D (Homo sapiens, UniProt P01116, G13D); type: binding; details: single point, 10 nM compound, read-out: Binding to KRas (% inhibition at 10 nM) G13D
# KRas G12V = KRas G12V (Homo sapiens, UniProt P01116, G12V); experiment: biochemical; details: Binding to KRas (IC50 nM) G12V, TR-FRET displacement, KRas G12V
# KRas G12V, sequence (P01116 1-169 isoform P01116-2 G12V): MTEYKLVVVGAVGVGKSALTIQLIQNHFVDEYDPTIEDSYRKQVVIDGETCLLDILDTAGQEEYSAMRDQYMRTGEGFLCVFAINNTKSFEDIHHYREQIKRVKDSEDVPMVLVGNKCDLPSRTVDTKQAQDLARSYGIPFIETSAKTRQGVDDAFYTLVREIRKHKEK
# KRas G12R, sequence (P01116 1-169 isoform P01116-2 G12R): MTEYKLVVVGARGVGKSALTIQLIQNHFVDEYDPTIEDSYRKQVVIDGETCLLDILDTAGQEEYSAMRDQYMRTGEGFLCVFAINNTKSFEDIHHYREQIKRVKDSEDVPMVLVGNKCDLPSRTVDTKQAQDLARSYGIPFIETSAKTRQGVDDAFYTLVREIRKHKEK
# KRas Q61H, sequence (P01116 1-169 isoform P01116-2 Q61H): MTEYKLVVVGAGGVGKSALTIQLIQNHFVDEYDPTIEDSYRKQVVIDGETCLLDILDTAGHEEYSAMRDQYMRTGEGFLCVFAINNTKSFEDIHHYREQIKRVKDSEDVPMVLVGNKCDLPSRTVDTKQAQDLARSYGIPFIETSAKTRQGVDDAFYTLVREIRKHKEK
# KRas G12D, sequence (P01116 1-169 isoform P01116-2 G12D): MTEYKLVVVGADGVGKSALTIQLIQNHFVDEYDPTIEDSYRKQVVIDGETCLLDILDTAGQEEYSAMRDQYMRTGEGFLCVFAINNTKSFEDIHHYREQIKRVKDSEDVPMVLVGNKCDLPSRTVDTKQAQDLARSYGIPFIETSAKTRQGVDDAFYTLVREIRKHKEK
# KRas G12A, sequence (P01116 1-169 isoform P01116-2 G12A): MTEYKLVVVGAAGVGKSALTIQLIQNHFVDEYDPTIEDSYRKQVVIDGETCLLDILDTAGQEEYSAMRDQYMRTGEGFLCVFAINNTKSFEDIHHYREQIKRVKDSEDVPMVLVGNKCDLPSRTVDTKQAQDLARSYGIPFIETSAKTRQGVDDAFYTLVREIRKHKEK
# KRas G12S, sequence (P01116 1-169 isoform P01116-2 G12S): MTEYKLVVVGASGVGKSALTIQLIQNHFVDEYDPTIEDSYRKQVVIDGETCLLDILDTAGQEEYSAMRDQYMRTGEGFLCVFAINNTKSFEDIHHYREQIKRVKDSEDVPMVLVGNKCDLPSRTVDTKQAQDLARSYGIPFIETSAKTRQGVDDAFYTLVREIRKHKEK
# KRas G12C, sequence (P01116 1-169 isoform P01116-2 G12C): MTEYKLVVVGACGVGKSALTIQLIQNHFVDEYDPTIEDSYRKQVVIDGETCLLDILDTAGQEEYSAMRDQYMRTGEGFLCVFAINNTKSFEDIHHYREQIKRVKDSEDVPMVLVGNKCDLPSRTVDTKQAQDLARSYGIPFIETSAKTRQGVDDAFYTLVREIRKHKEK
# KRas G13D, sequence (P01116 1-169 isoform P01116-2 G13D): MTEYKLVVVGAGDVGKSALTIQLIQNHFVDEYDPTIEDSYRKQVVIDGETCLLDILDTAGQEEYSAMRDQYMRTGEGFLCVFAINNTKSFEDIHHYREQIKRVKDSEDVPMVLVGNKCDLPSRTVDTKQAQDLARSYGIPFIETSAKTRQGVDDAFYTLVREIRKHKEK
# KRas WT, sequence (P01116 1-169 isoform P01116-2): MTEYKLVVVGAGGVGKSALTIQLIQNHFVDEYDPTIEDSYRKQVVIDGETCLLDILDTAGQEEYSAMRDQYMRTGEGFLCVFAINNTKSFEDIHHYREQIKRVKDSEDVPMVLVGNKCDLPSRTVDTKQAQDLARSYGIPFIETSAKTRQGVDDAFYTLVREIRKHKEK
Structure (SMILES),IC50 (A549 cells) [nM],inhibition at 0.01 µM (KRas G12A) [%],IC50 (ASPC1 cells) [nM],IC50 (H460 cells) [nM],IC50 (KRas G12D) [nM],IC50 (PSN1 cells) [nM],IC50 (KRas G12R) [nM],IC50 (H358 cells) [nM],IC50 (HCT116 cells) [nM],inhibition at 0.01 µM (KRas G12S) [%],IC50 (MKN1 cells) [nM],IC50 (H727 cells) [nM],inhibition at 0.01 µM (KRas G12C) [%],inhibition at 0.01 µM (KRas WT) [%],inhibition at 0.01 µM (KRas Q61H) [%],inhibition at 0.01 µM (KRas G13D) [%],IC50 (KRas G12V) [nM],inhibition at 0.1 µM (A549 cells) [%],inhibition at 0.1 µM (H358 cells) [%],further results
"CCc1c(F)ccc2cc(O)cc(N3CCc4c(nc(OC[C@@]56CCCN5C[C@H](F)C6)nc4N4CCCn5nc(C(=O)NC6CC6)cc5C4)C3)c12 [Example 384, N-cyclopropyl-5-(7-(8-ethyl-7-fluoro-3-hydroxynaphthalen-1-yl)-2-(((2R,7aS)-2-fluorohexahydro-1H-pyrrolizin-7a-yl)methoxy)-5,6,7,8-tetrahydropyrido[3,4-d]pyrimidin-4-yl)-5,6,7,8-tetrahydro-4H-pyrazolo[1,5-a][1,4]diazepine-2-carboxamide]",17,91,2,25,< 2,3880,< 2,5,91,98,9,6,99,94,95,93,< 2,65,100,inhibition at 0.1 µM (ASPC1 cells): 98%; inhibition at 0.1 µM (H727 cells): 79%
"CCc1c(F)ccc2cc(O)cc(N3CCc4c(nc(OC[C@@]56CCCN5C[C@H](F)C6)nc4N4CCCn5nc(C(=O)NC)c(Cl)c5C4)C3)c12 [Example 388, 3-chloro-5-(7-(8-ethyl-7-fluoro-3-hydroxynaphthalen-1-yl)-2-(((2R,7aS)-2-fluorohexahydro-1H-pyrrolizin-7a-yl)methoxy)-5,6,7,8-tetrahydropyrido[3,4-d]pyrimidin-4-yl)-N-methyl-5,6,7,8-tetrahydro-4H-pyrazolo[1,5-a][1,4]diazepine-2-carboxamide]",9,94,1,20,< 2,2350,< 2,1,42,99,8.1,2,100,98,99,98,< 2,79,97,
"CCc1c(F)ccc2cc(O)cc(N3CCc4c(nc(OC[C@@]56CCCN5C[C@H](F)C6)nc4N4CCCn5nc(C(=O)N(CC)CC)cc5C4)C3)c12 [Example 390, N,N-diethyl-5-(7-(8-ethyl-7-fluoro-3-hydroxynaphthalen-1-yl)-2-(((2R,7aS)-2-fluorohexahydro-1H-pyrrolizin-7a-yl)methoxy)-5,6,7,8-tetrahydropyrido[3,4-d]pyrimidin-4-yl)-5,6,7,8-tetrahydro-4H-pyrazolo[1,5-a][1,4]diazepine-2-carboxamide]",5,95,1,15,< 2,3850,< 2,1,42,98,9.6,3,99,95,97,95,< 2,79,98,

# The remaining compounds from weak to strong by IC50 (ASPC1 cells), led by results:
IC50 (A549 cells) [nM],inhibition at 0.01 µM (KRas G12A) [%],IC50 (ASPC1 cells) [nM],IC50 (H460 cells) [nM],IC50 (KRas G12D) [nM],IC50 (PSN1 cells) [nM],IC50 (KRas G12R) [nM],IC50 (H358 cells) [nM],IC50 (HCT116 cells) [nM],inhibition at 0.01 µM (KRas G12S) [%],IC50 (MKN1 cells) [nM],IC50 (H727 cells) [nM],inhibition at 0.01 µM (KRas G12C) [%],inhibition at 0.01 µM (KRas WT) [%],inhibition at 0.01 µM (KRas Q61H) [%],inhibition at 0.01 µM (KRas G13D) [%],IC50 (KRas G12V) [nM],Structure (SMILES),inhibition at 0.1 µM (A549 cells) [%],inhibition at 0.1 µM (H358 cells) [%],further results
,81,4,43,< 2,> 10000,3,,128,94,57.6,26,93,81,85,86,< 2,"CCc1c(F)ccc2cc(O)cc(N3CCc4c(nc(OC[C@@]56CCCN5C[C@H](F)C6)nc4N4CCCn5nnc(Cl)c5C4)C3)c12 [Example 391, 4-(4-(3-chloro-7,8-dihydro-4H-[1,2,3]triazolo[1,5-a][1,4]diazepin-5(6H)-yl)-2-(((2R,7aS)-2-fluorohexahydro-1H-pyrrolizin-7a-yl)methoxy)-5,6-dihydropyrido[3,4-d]pyrimidin-7(8H)-yl)-5-ethyl-6-fluoronaphthalen-2-ol]",69,77,
15,96,3,22,< 2,3980,< 2,2,85,98,14.4,5,98,95,96,94,< 2,"CCc1c(F)ccc2cc(O)cc(N3CCc4c(nc(OC[C@@]56CCCN5C[C@H](F)C6)nc4N4CCCn5nc(C(=O)N(C)C6CCC6)cc5C4)C3)c12 [Example 385, N-cyclobutyl-5-(7-(8-ethyl-7-fluoro-3-hydroxynaphthalen-1-yl)-2-(((2R,7aS)-2-fluorohexahydro-1H-pyrrolizin-7a-yl)methoxy)-5,6,7,8-tetrahydropyrido[3,4-d]pyrimidin-4-yl)-N-methyl-56,7,8-tetrahydro-4H-pyrazolo[1,5-a][1,4]diazepine-2-carboxamide]",74,94,
4,92,1,19,< 2,2710,< 2,1,39,98,11.3,2,99,95,97,96,< 2,"CCc1c(F)ccc2cc(O)cc(N3CCc4c(nc(OC[C@@]56CCCN5C[C@H](F)C6)nc4N4CCCn5nc(C(=O)NC(C)C)c(Cl)c5C4)C3)c12 [Example 386, 3-chloro-5-(7-(8-ethyl-7-fluoro-3-hydroxynaphthalen-1-yl)-2-(((2R,7aS)-2-fluorotetrahydro-1H-pyrrolizin-7a(5H)-yl)methoxy)-5,6,7,8-tetrahydropyrido[3,4-d]pyrimidin-4-yl)-N-isopropyl-5,6,7,8-tetrahydro-4H-pyrazolo[1,5-a][1,4]diazepine-2-carboxamide]",88,91,
1,99,1,7,< 2,1800,< 2,1,14,100,3,2,100,99,99,99,< 2,"CCc1c(F)ccc2cc(O)cc(N3CCc4c(nc(OC[C@@]56CCCN5C[C@H](F)C6)nc4N4CCCn5nc(C(=O)N(C)C)c(Br)c5C4)C3)c12 [Example 387, 3-bromo-5-(7-(8-ethyl-7-fluoro-3-hydroxynaphthalen-1-yl)-2-(((2R,7aS)-2-fluorohexahydro-1H-pyrrolizin-7a-yl)methoxy)-5,6,7,8-tetrahydropyrido[3,4-d]pyrimidin-4-yl)-N,N-dimethyl-5,6,7,8-tetrahydro-4H-pyrazolo[1,5-a][1,4]diazepine-2-carboxamide]",89,100,inhibition at 0.1 µM (ASPC1 cells): 99%; inhibition at 0.1 µM (H727 cells): 85%
